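Five concentrations, 48 hours, 96-well plates. TGI: concentration producing complete growth inhibition.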 Where a SMILES comes first, the peptide text is derived from it. The star is where a group is joined. Cbz = O=C(OCc1ccccc1)*; Boc = CC(C)(C)OC(=O)*; Bn = c1ccc(C*)cc1 Where only a bound is given, the exact number is not on record here.

Test systems include SF-295 CNS; NCI-H460 lung; SK-OV-3 ovarian; HT29 colon; T-47D breast; SW-620 colon; UACC-62 melanoma; UACC-257 melanoma; 786-0 renal; MOLT-4 leukemia; NCI-H226 lung; TK-10 renal; SNB-19 CNS; CCRF-CEM leukemia; NCI-H522 lung; MALME-3M melanoma; NCI-H23 lung; HOP-92 NSCLC; BT-549 breast.
Common to all, as to assay: NCI-60 cell line screen, 48 h

Regarding `COc1ccc(C(=O)/C=C/c2ccc(OCCSCCCCCCCCCCSCCOc3ccc(/C=C/C(=O)c4ccc(OC)cc4)cc3)cc2)cc1`, the TGI in the test on SF-295 CNS, in the test on NCI-H460 lung, in the test with SK-OV-3 ovarian, with HT29 colon, in the test with T-47D breast and in the test on SW-620 colon was over 100 µM throughout. Besides, the TGI with UACC-62 melanoma, with UACC-257 melanoma, with 786-0 renal, in the test with MOLT-4 leukemia, with NCI-H226 lung and with TK-10 renal was over 100 µM in each case. The TGI in the test with SNB-19 CNS and in the test with CCRF-CEM leukemia was over 100 µM in each case.

Take `CC(O)(/C=C/c1ccccc1)P(=O)(O)c1ccccc1` (configuration not stated): the TGI in the test with NCI-H522 lung, with MALME-3M melanoma, in the test on SF-295 CNS, in the test with NCI-H460 lung, in the test with SK-OV-3 ovarian and in the test with HT29 colon was over 100 µM throughout. Moreover, the TGI in the test on T-47D breast, in the test with SW-620 colon, in the test with UACC-62 melanoma, in the test on UACC-257 melanoma, in the test on NCI-H23 lung and with 786-0 renal was over 100 µM in each case. Moreover, the TGI in the test with HOP-92 NSCLC, in the test with NCI-H226 lung, with TK-10 renal and in the test with SNB-19 CNS was over 100 µM throughout.

On to `CC(=O)CCC(=O)C(=[N+]=[N-])S(=O)(=O)c1ccccc1`, for which the TGI in the test on NCI-H522 lung, with MALME-3M melanoma, in the test with SF-295 CNS, in the test on NCI-H460 lung, in the test with HT29 colon and with BT-549 breast was over 100 µM throughout. The TGI with SW-620 colon, in the test with UACC-62 melanoma, in the test with UACC-257 melanoma, in the test on NCI-H23 lung, in the test with 786-0 renal and with MOLT-4 leukemia was over 100 µM in each case. Further, the TGI in the test on TK-10 renal, in the test on SNB-19 CNS and in the test on CCRF-CEM leukemia was over 100 µM throughout.

Turning to `C#CCOCn1ccc(=O)[nH]c1=O`, the TGI in the test on MALME-3M melanoma, in the test on SF-295 CNS, in the test on NCI-H460 lung, with SK-OV-3 ovarian, in the test with HT29 colon and in the test on T-47D breast was over 100 µM throughout. Besides, the TGI in the test with SW-620 colon, in the test with UACC-62 melanoma, in the test with UACC-257 melanoma, in the test with NCI-H23 lung, in the test with 786-0 renal and in the test on MOLT-4 leukemia was over 100 µM throughout. Besides, the TGI in the test with NCI-H226 lung, in the test on TK-10 renal, in the test on SNB-19 CNS and in the test on CCRF-CEM leukemia was over 100 µM each time.

As to `CN1CCN(c2cc3c(cc2F)c(=O)c(C(=O)O)cn3C2CC2)CC1CC#N` (configuration not stated), the TGI with MALME-3M melanoma, with SF-295 CNS, in the test on NCI-H460 lung, in the test on SK-OV-3 ovarian, in the test with HT29 colon and in the test with T-47D breast was over 100 µM throughout. The TGI in the test with BT-549 breast, with SW-620 colon, in the test on UACC-62 melanoma, with UACC-257 melanoma, in the test on NCI-H23 lung and in the test with 786-0 renal was over 100 µM each time. The TGI in the test with MOLT-4 leukemia, with NCI-H226 lung, with TK-10 renal, in the test on SNB-19 CNS and in the test with CCRF-CEM leukemia was over 100 µM throughout.

For the compound `CC(C)(C)OC(=O)NC(Cc1ccc(OCc2ccccc2)cc1)C(=O)NC(CCCCNC(=O)OCc1ccccc1)C(=O)O` (configuration not stated) (Boc-Tyr(Bn)-Lys(Cbz)-OH; configuration not given here), the TGI with MALME-3M melanoma was over 100 µM; in the test with HT29 colon it was over 100 µM; in the test on BT-549 breast, 60.8 µM; in the test on SW-620 colon, over 100 µM; in the test on UACC-62 melanoma, 43.9 µM; in the test with UACC-257 melanoma, over 100 µM. For the same compound, the TGI is over 100 µM with NCI-H23 lung; over 100 µM in the test with 786-0 renal; 85.1 µM with MOLT-4 leukemia; 48.5 µM with HOP-92 NSCLC; over 100 µM in the test with NCI-H226 lung; over 100 µM in the test with TK-10 renal. The TGI with SNB-19 CNS and with CCRF-CEM leukemia was over 100 µM in each case.

In the case of `CC(C)(C)[Si](C)(C)OCC1OC(n2ccc(=O)[nH]c2=O)C(O[Si](C)(C)C(C)(C)C)[C@@]12O[C@H]2C(N)=O` (some centres not stated), the TGI with NCI-H522 lung worked out at 7.35 µM; in the test with SF-295 CNS, 17 µM; with NCI-H460 lung it was 20.4 µM; in the test on SK-OV-3 ovarian it was 36.6 µM; with HT29 colon, 12.4 µM; in the test with BT-549 breast, 40.2 µM. The TGI in the test on SW-620 colon is 42.5 µM; with UACC-62 melanoma it was 99.3 µM; in the test on UACC-257 melanoma, over 100 µM; with NCI-H23 lung, 28.7 µM; with 786-0 renal, 29.9 µM; with MOLT-4 leukemia it was over 100 µM. Moreover, the values for the TGI in the test with NCI-H226 lung, with TK-10 renal and in the test with SNB-19 CNS were 11.4 µM, 48.3 µM and 24.1 µM, respectively.

As for `C=CN1C(=O)OC[C@@H]1c1ccccc1`, the TGI in the test on NCI-H522 lung, with MALME-3M melanoma, in the test with SF-295 CNS, with NCI-H460 lung, with SK-OV-3 ovarian and with HT29 colon was over 100 µM throughout. Further, the TGI in the test with SW-620 colon is 37.9 µM; in the test on UACC-62 melanoma, over 100 µM; in the test on UACC-257 melanoma, over 100 µM; in the test with NCI-H23 lung, over 100 µM; in the test with 786-0 renal, over 100 µM; in the test on MOLT-4 leukemia it was over 100 µM. In addition, the TGI in the test on HOP-92 NSCLC, with NCI-H226 lung, with TK-10 renal, in the test on SNB-19 CNS and in the test on CCRF-CEM leukemia was over 100 µM in each case.

For `COc1cc(NCc2ccc3nc(-c4ccccc4)c(N)nc3c2)cc(OC)c1OC`, the TGI in the test on NCI-H522 lung was 62.3 µM; in the test with MALME-3M melanoma it was 65.9 µM; in the test on SF-295 CNS, 92.7 µM; in the test with NCI-H460 lung it was over 100 µM; with SK-OV-3 ovarian it was over 100 µM; in the test with HT29 colon it was over 100 µM. Also, the TGI with T-47D breast was 91 µM; in the test with SW-620 colon it was over 100 µM; in the test on UACC-62 melanoma it was 72.6 µM; in the test on UACC-257 melanoma, 51.4 µM; in the test on NCI-H23 lung it was 62.3 µM; in the test on 786-0 renal, over 100 µM. For the same compound, the TGI was 58.6 µM in the test on MOLT-4 leukemia; 78.1 µM with HOP-92 NSCLC; over 100 µM in the test on NCI-H226 lung; over 100 µM in the test on TK-10 renal; over 100 µM with SNB-19 CNS; 77 µM in the test on CCRF-CEM leukemia.

The values above are taken from PubChem BioAssay (NCI).
